Measured values: patent publication US10219516B2, “Molecules having pesticidal utility, and intermediates, compositions, and processes, related thereto” (priority 2015, dated 2019)
Read-outs that look alike come from different tables or passages of the source.

Key:
Assay type in all cases: in vivo
[1] = test system: Beet Armyworm (Spodoptera exigua, LAPHEG); test: Bioassay on Beet Armyworm (BAW), 128-well diet tray assay
Summary of the method: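 Artificial diet surface-treated with 50 μg/cm^2 test molecule in 90:10 acetone-water, dried, then infested with one to five second instar larvae per well. Held covered and vented at 25° C., 14:10 light-dark for five to seven days; percent mortality recorded per well and averaged over eight wells.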

[2] = test system: Yellow Fever Mosquito (Aedes aegypti, AEDSAE); test: Bioassay on Yellow Fever Mosquito (YFM), 96-well plate larval assay; conditions: for YFM rating: Yellow Fever Mosquito, 96-well plate larval assay; for YFM (Biological Results, rating): Species YFM (Yellow Fever Mosquito)
Summary of the method: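 Each well was scored for mortality after 3 days at room temperature under a non-evaporative lid. Test molecules came from DMSO masters (4000 ppm stock) diluted with water/acetone 90:10 and dispensed into six replicate plates, which were then infested with roughly 1-day-old larvae in liver-powder water.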

[3] = test system: Cabbage Looper (Trichoplusia ni, TRIPNI); test: Bioassay on Cabbage Looper (CL), 128-well diet tray assay; conditions: Trichoplusia ni
Summary of the method: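 Second-instar larvae, one to five per well, were placed on artificial diet surface-treated with 50 μg/cm^2 test molecule applied in 90:10 acetone-water and dried, eight wells per molecule. Trays were covered, vented and held at 25° C., 14:10 light-dark for five to seven days; percent mortality per well was averaged.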

[4] = Beet Armyworm, 128-well diet tray assay, read-out: BAW rating
[5] = Cabbage Looper, 128-well diet tray assay, read-out: CL rating
[6] = Species BAW (Beet Armyworm), read-out: BAW (Biological Results, rating)
[7] = Species CL (Cabbage Looper), read-out: CL (Biological Results, rating)

CN1Cc2cc(NC(=O)c3cc(NC(=O)[C@H]4[C@H](c5cc(Cl)cc(Cl)c5)C4(Cl)Cl)ccc3Cl)ccc2C1=O (relative stereo) [F518, 2-Chloro-5-(trans)-(2,2-dichloro-3-(3,5-dichlorophenyl)cyclopropane-1-carboxamido)-N-(2-methyl-1-oxoisoindolin-5-yl)benzamide]
pest or weed control at 50 µg/cm2 [1, 4]: 50 to 100%
YFM rating [2]: A (80-100)
pest or weed control at 50 µg/cm2 [3, 5]: 50 to 100%

Nc1cc(F)cc(NC(=O)c2cc(NC(=O)[C@H]3[C@H](c4ccc(Cl)c(Cl)c4)C3(Cl)Cl)ccc2Cl)c1 [F431, N-(3-Amino-5-fluorophenyl)-2-chloro-5-((1R,3R)-2,2-dichloro-3-(3,4-dichlorophenyl)cyclopropane-1-carboxamido)benzamide]
pest or weed control at 50 µg/cm2 [1, 4]: 50 to 100%
YFM rating [2]: A (80-100)
pest or weed control at 50 µg/cm2 [3, 5]: 50 to 100%

CC1(c2cc(Cl)cc(Cl)c2)C(C(=O)Nc2ccc(Cl)c(C(=O)Nc3ccc(F)cc3F)c2)C1(Cl)Cl (stereo not drawn) [F252, 2-Chloro-5-trans-(2,2-dichloro-3-(3,5-dichlorophenyl)-3-methylcyclopropane-1-carboxamido)-N-(2,4-difluorophenyl)benzamide]
pest or weed control at 50 µg/cm2 [1, 6]: 50 to 100%
YFM (Biological Results, rating) [2]: A (80-100)
pest or weed control at 50 µg/cm2 [3, 7]: 50 to 100%

O=C(Nc1ccc(NC(=O)C2CC2(F)F)cc1)c1cc(NC(=O)[C@H]2[C@H](c3cc(Cl)cc(Cl)c3)C2(Cl)Cl)ccc1Cl (relative stereo) [PF108, trans-2-chloro-5-(2,2-dichloro-3-(3,5-dichlorophenyl)cyclopropane-1-carboxamido)-N-(4-(2,2-difluorocyclopropane-1-carboxamido)phenyl)benzamide]
pest or weed control at 50 µg/cm2 [1, 4]: 50 to 100%
YFM rating [2]: A (80-100)
pest or weed control at 50 µg/cm2 [3, 5]: 50 to 100%

O=C(Nc1cc(F)c2[nH]ccc2c1)c1cc(NC(=O)[C@H]2[C@H](c3cc(Cl)cc(Cl)c3)C2(Cl)Cl)ccc1Cl (relative stereo) [F462, 2-Chloro-5-(trans)-(2,2-dichloro-3-(3,5-dichlorophenyl)cyclopropane-1-carboxamido)-N-(7-fluoro-1H-indol-5-yl)benzamide]
pest or weed control at 50 µg/cm2 [1, 4]: 50 to 100%
YFM rating [2]: A (80-100)
pest or weed control at 50 µg/cm2 [3, 5]: 50 to 100%

Nc1c(F)cc(F)cc1NC(=O)c1cc(NC(=O)[C@H]2[C@H](c3ccc(Cl)c(Cl)c3)C2(Cl)Cl)ccc1Cl [F377, N-(2-Amino-3,5-difluorophenyl)-2-chloro-5-((1R,3R)-2,2-dichloro-3-(3,4-dichlorophenyl)cyclopropane-1-carboxamido)benzamide]
pest or weed control at 50 µg/cm2 [1, 4]: 50 to 100%
YFM rating [2]: A (80-100)
pest or weed control at 50 µg/cm2 [3, 5]: 50 to 100%

CN(C(=O)c1cc(NC(=O)[C@H]2[C@H](c3ccc(Cl)c(Cl)c3)C2(Cl)Cl)ccc1F)c1ccccc1 (relative stereo) [F67, trans-5-(2,2-Dichloro-3-(3,4-dichlorophenyl)cyclopropane-1-carboxamido)-2-fluoro-N-methyl-N-phenylbenzamide]
pest or weed control at 50 µg/cm2 [1, 6]: 50 to 100%
YFM (Biological Results, rating) [2]: B (More than 0-Less than 80)
pest or weed control at 50 µg/cm2 [3, 7]: 50 to 100%

O=C(Nc1ccc2ncoc2c1)c1cc(NC(=O)C2C(c3cc(Cl)cc(Cl)c3)C2(Cl)Cl)ccc1Cl (stereo not drawn) [F450, N-(Benzo[d]oxazol-6-yl)-2-chloro-5-(trans)-2,2-dichloro-3-(3,5-dichlorophenyl)cyclopropane-1-carboxamido)benzamide]
pest or weed control at 50 µg/cm2 [1, 4]: 50 to 100%
YFM rating [2]: A (80-100)
pest or weed control at 50 µg/cm2 [3, 5]: 50 to 100%

O=C(Nc1ccc(Cl)c(Cl)c1F)c1cc(NC(=O)C2C(c3cc(Cl)cc(Cl)c3)C2(Cl)Cl)ccc1Cl (stereo not drawn) [PF127, 2-Chloro-N-(3,4-dichloro-2-fluorophenyl)-5-(trans)-2,2-dichloro-3-(3,5-dichlorophenyl)cyclopropane-1-carboxamido)benzamide]
pest or weed control at 50 µg/cm2 [1, 4]: 50 to 100%
YFM rating [2]: A (80-100)
pest or weed control at 50 µg/cm2 [3, 5]: 50 to 100%

C#Cc1ccc([C@H]2[C@H](C(=O)Nc3ccc(Cl)c(C(=O)Nc4ccc(F)cc4C#N)c3)C2(Cl)Cl)cc1Cl (relative stereo) [F401, 2-chloro-N-(2-cyano-4-fluorophenyl)-5-(trans-2,2-dichloro-3-(3-chloro-4-ethynylphenyl)cyclopropane-1-carboxamido)benzamide]
pest or weed control at 50 µg/cm2 [1, 4]: 50 to 100%
YFM rating [2]: A (80-100)
pest or weed control at 50 µg/cm2 [3, 5]: 50 to 100%

O=C(Nc1ccnc(Cl)c1)c1cc(NC(=O)[C@H]2[C@H](c3ccc(Cl)c(Cl)c3)C2(Cl)Cl)ccc1Cl [F369, 2-Chloro-N-(2-chloropyridin-4-yl)-5-((1R,3R)-2,2-dichloro-3-(3,4-dichlorophenyl)cyclopropane-1-carboxamido)benzamide]
pest or weed control at 50 µg/cm2 [1, 6]: 50 to 100%
YFM (Biological Results, rating) [2]: A (80-100)
pest or weed control at 50 µg/cm2 [3, 7]: 50 to 100%

O=C(Nc1ccc(-n2cncn2)cc1)c1cc(NC(=O)[C@H]2[C@H](c3cc(Cl)cc(Cl)c3)C2(Cl)Cl)ccc1Cl (relative stereo) [PF57, trans-N-(4-(1H-1,2,4-Triazol-1-yl)phenyl)-2-chloro-5-(2,2-dichloro-3-(3,5-dichlorophenyl)cyclopropane-1-carboxamido)benzamide]
pest or weed control at 50 µg/cm2 [1, 4]: 50 to 100%
YFM rating [2]: A (80-100)
pest or weed control at 50 µg/cm2 [3, 5]: 50 to 100%

Cc1cc(NC(=O)OC(C)(C)C)ccc1NC(=O)c1cc(NC(=O)[C@H]2[C@H](c3ccc(Cl)c(Br)c3)C2(Cl)Cl)ccc1Cl (relative stereo) [F334, tert-Butyl (4-(5-(trans-3-(3-bromo-4-chlorophenyl)-2,2-dichlorocyclopropane-1-carboxamido)-2-chlorobenzamido)-3-methylphenyl)carbamate]
pest or weed control at 50 µg/cm2 [1, 6]: 50 to 100%
YFM (Biological Results, rating) [2]: A (80-100)
pest or weed control at 50 µg/cm2 [3, 7]: 50 to 100%

O=C(Nc1ccc(F)cc1F)c1cc(NC(=O)C2C(c3cc(F)c(F)c(F)c3)C2(Cl)Cl)ccc1Cl (stereo not drawn) [F581, 2-Chloro-5-trans-(2,2-dichloro-3-(3,4,5-trifluorophenyl)cyclopropane-1-carboxamido)-N-(2,4-difluorophenyl)benzamide]
pest or weed control at 50 µg/cm2 [1, 4]: 50 to 100%
YFM rating [2]: A (80-100)
pest or weed control at 50 µg/cm2 [3, 5]: 50 to 100%

O=C(Nc1ccc(F)cc1F)c1cc(NC(=O)[C@H]2[C@H](c3ccc(Br)c(Br)c3)C2(Cl)Cl)ccc1Cl (relative stereo) [F532, 2-Chloro-5-(trans)-(2,2-dichloro-3-(3,4-dibromophenyl)cyclopropane-1-carboxamido)-N-(2,4-difluorophenyl)benzamide]
pest or weed control at 50 µg/cm2 [1, 4]: 50 to 100%
YFM rating [2]: A (80-100)
pest or weed control at 50 µg/cm2 [3, 5]: 50 to 100%

O=C(Nc1ccc(Cl)c(F)c1)c1cc(NC(=O)C2C(c3cc(Cl)cc(Cl)c3)C2(Cl)Cl)ccc1Cl (stereo not drawn) [PF123, 2-Chloro-N-(4-chloro-3-fluorophenyl)-5-(trans)-2,2-dichloro-3-(3,5-dichlorophenyl)cyclopropane-1-carboxamido)benzamide]
pest or weed control at 50 µg/cm2 [1, 4]: 50 to 100%
YFM rating [2]: A (80-100)
pest or weed control at 50 µg/cm2 [3, 5]: 50 to 100%

O=C(Nc1nc2c(Cl)cccc2s1)c1cc(NC(=O)C2C(c3cc(Cl)cc(Cl)c3)C2(Cl)Cl)ccc1Cl (stereo not drawn) [F443, 2-Chloro-N-(4-chlorobenzo[d]thiazol-2-yl)-5-(trans)-2,2-dichloro-3-(3,5-dichlorophenyl)cyclopropane-1-carboxamido)benzamide]
pest or weed control at 50 µg/cm2 [1, 4]: 50 to 100%
YFM rating [2]: B (More than 0-Less than 80)
pest or weed control at 50 µg/cm2 [3, 5]: 50 to 100%

O=C(Nc1cncc([N+](=O)[O-])c1)c1cc(NC(=O)[C@H]2[C@H](c3ccc(Cl)c(Cl)c3)C2(Cl)Cl)ccc1Cl [F359, 2-Chloro-5-((1R,3R)-2,2-dichloro-3-(3,4-dichlorophenyl)cyclopropane-1-carboxamido)-N-(5-nitropyridin-3-yl)benzamide]
pest or weed control at 50 µg/cm2 [1, 6]: 50 to 100%
YFM (Biological Results, rating) [2]: A (80-100)
pest or weed control at 50 µg/cm2 [3, 7]: 50 to 100%

O=C(Nc1nc2cc(F)ccc2s1)c1cc(NC(=O)C2C(c3cc(Cl)cc(Cl)c3)C2(Cl)Cl)ccc1Cl (stereo not drawn) [F442, 2-Chloro-5-(trans)-2,2-dichloro-3-(3,5-dichlorophenyl)cyclopropane-1-carboxamido)-N-(5-fluorobenzo[d]thiazol-2-yl)benzamide]
pest or weed control at 50 µg/cm2 [1, 4]: 50 to 100%
YFM rating [2]: B (More than 0-Less than 80)
pest or weed control at 50 µg/cm2 [3, 5]: 50 to 100%

CNc1ccc(NC(=O)c2cc(NC(=O)[C@H]3[C@H](c4cc(Cl)cc(Cl)c4)C3(Cl)Cl)ccc2Cl)c(F)c1 (relative stereo) [F177, trans-2-Chloro-5-(2,2-dichloro-3-(3,5-dichlorophenyl)cyclopropane-1-carboxamido)-N-(2-fluoro-4-(methylamino)phenyl)benzamide]
pest or weed control at 50 µg/cm2 [1, 6]: 50 to 100%
YFM (Biological Results, rating) [2]: A (80-100)
pest or weed control at 50 µg/cm2 [3, 7]: 50 to 100%

COc1cc(NC(=O)c2cc(NC(=O)C3C(c4cc(Cl)cc(Cl)c4)C3(Cl)Cl)ccc2Cl)ccc1Cl (stereo not drawn) [PF114, 2-Chloro-N-(4-chloro-3-methoxyphenyl)-5-(trans)-2,2-dichloro-3-(3,5-dichlorophenyl)cyclopropane-1-carboxamido)benzamide]
pest or weed control at 50 µg/cm2 [1, 4]: 50 to 100%
YFM rating [2]: A (80-100)
pest or weed control at 50 µg/cm2 [3, 5]: 50 to 100%
